These results are taken from article PMC2276102, “Phage Display Based Cloning of Proteins Interacting with the Cytoplasmic Tail of Membrane Immunoglobulins” (Developmental Immunology, 2002).

In test [1] the test system is cHPK1 (87 amino acids of the C-terminal part of HPK1) displayed on phage. Put plainly: Surface plasmon resonance analysis (BIACORE), HIS-tagged Ig-tail peptides on NTA sensor chip, cHPK1 phagemids injected. The format is binding, murine. The settings on record: for decrease of binding capacity / relative binding affinity for cHPK1 compared to the wild type IgE tail: after the elution step, IgE measurement set to 100%; for Elution after 100 s, Relative RUs: binding of cHPK1 phage (10^9 cfu in TBS) to immobilised HIS-tagged Ig-tail, value remaining after 100 s of elution; for Injection after 60 s, Relative RUs: binding of cHPK1 phage (10^9 cfu in TBS, injected 60 s) to immobilised HIS-tagged Ig-tail, 400 (±25) RUs peptide coupled, value taken 60 s after injection; for Elution after 100 s, %: relative RUs after 100 s elution, IgE values were set to 100%. From the text:
Phage Display Based Cloning of Proteins Interacting with the Cytoplasmic Tail of Membrane Immunoglobulins* ROLAND GEISBERGERa , MARTIN PRLICa , GERTRUDE ACHATZ-STRAUSSBERGERa , IRIS OBERNDORFERa , ELKE LUGERb , MARINUS LAMERSc , RETO CRAMERId , ULRICH APPENZELLERd , JURGEN WIENANDSe , MICHAEL BREITENBACHa , FATIMA FERREIRAa and GERNOT ACHATZa, a Department of Genetics and General Biology, Hellbrunnerstrae 34, A-5020 Salzburg, Austria; b DRFZ, Schumannstrasse 21/22, D-10117, Germany; c MPI for Immunobiology, Stubeweg 51, D-79108 Freiburg, Germany; d SIAF, Obere Strasse 22, CH-7270 Davos, Switzerland; e Department of Biochemistry I, Universitaetsstrasse 25, D-33615 Bielefeld, Germany. The reduced quantity and quality of serum immunoglobulins (sIgs) in mutant mice expressing truncated cytoplasmic tails of IgE and IgG1 indicate an active role for the cytoplasmic domains of mIgG1 and mIgE. We used phage display technology to identify candidate proteins able to interact with the cytoplasmic tail of mIgE. […] The interaction of HPK1 with the cytoplasmic domains of membrane immunoglobulins indicate an active role of the tails as part of an isotype specific signal transduction, independent from the Iga/Igb heterodimers, and may represent a missing link to upstream regulatory elements of HPK1 activation. Keywords: Antigen receptor; Cytoplasmic tail; HPK1; Phage display; Surface plasmon resonance INTRODUCTION The B cell antigen receptor (Vitetta et al., 1980; Reth, 1992) plays a central role in almost all processes along the developmental pathway of B cells, i.e. the generation, maturation, survival and activation of B cells. B cell antigen receptors (BCR) exist as a complex of membrane immunoglobulins (mIgs) and at least two other transmem- brane polypeptides, called Ig-a and Ig-b, which connect the antigen receptor to the tyrosine phosphorylation pathways in the cell. In this complex, mIgs serve as isotype specific antigen receptors on the surface of B lymphocytes. All isotypes of mIgs can form a complex with Ig-a and Ig-b (Venkitaraman et al., 1991) indicating an involvement of all isotypes in the signal transduction pathway. The earliest detectable biochemical event that follows BCR-aggregation is increased activity of protein tyrosine kinases (PTKs) of the Syk- and Src-family, which phosphorylate distinct tyrosine residues within conserved sequences present on the cytoplasmic portions of Ig-a and Ig-b (Reth, 1992). Phosphorylation of Ig-a and Ig-b occurs on the tyrosine residues of immuno receptor tyrosine-based activation motif (ITAM) and on the non-ITAM tyrosine 204 of Ig-a (Engels et al., 2001). Once phosphorylated, ITAMs provide binding sites for SRC homology 2 (SH2) domains of the Src and Syk PTKs and the adaptor protein SLP-65 (Engels et al., 2001), thus initiating several signaling pathways, the most important of which are the PLC-g, the Ras and the PI3-kinase pathways (Reth and Wienands, 1997; Kurosaki, 1999). Various external stimuli such as cytokine binding, interaction with other cells as well as stress factors including osmotic shock, heat or ionizing irradiation can influence the signaling cascade initiated by BCR engagement and they can contribute to differential alteration of the pattern of gene expression. Obviously, between Ig subclasses, there should be no differences in the transduction of signals regulating the central features of the immune system (Nussenzweig, 1997) such as the control of allelic exclusion, early cellular transitions and in the function of the membrane- bound immunoglobulin as a receptor for antigen capture ISSN 1044-6672 print q 2002 Taylor & Francis Ltd DOI: 10.1080/1044667031000137584 *Presented at the Proceedings of the 4th Germinal Center Conference, Groningen, The Netherlands, June 2002. Corresponding author. Address: Institut fur Genetik, Hellbrunnerstrae 34, A-5020 Salzburg, Austria. Tel.: 43-662-8044-5764. Fax: 43-662- 8044-144. […]

Test [2] shares this test system. Nature of the test: Surface plasmon resonance analysis (BIACORE), IgE tail peptide covalently coupled to CM5 sensor chip, cHPK1 phagemids injected. The format is binding, murine. The settings on record: CM5 sensor chip with covalently coupled IgE tail peptide (1683 RUs), random peptide as reference channel; 1 x 10^9 cHPK1 displaying phages injected over 200 s, washing with TBS. The text has this:
Phage Display Based Cloning of Proteins Interacting with the Cytoplasmic Tail of Membrane Immunoglobulins* ROLAND GEISBERGERa , MARTIN PRLICa , GERTRUDE ACHATZ-STRAUSSBERGERa , IRIS OBERNDORFERa , ELKE LUGERb , MARINUS LAMERSc , RETO CRAMERId , ULRICH APPENZELLERd , JURGEN WIENANDSe , MICHAEL BREITENBACHa , FATIMA FERREIRAa and GERNOT ACHATZa, a Department of Genetics and General Biology, Hellbrunnerstrae 34, A-5020 Salzburg, Austria; b DRFZ, Schumannstrasse 21/22, D-10117, Germany; c MPI for Immunobiology, Stubeweg 51, D-79108 Freiburg, Germany; d SIAF, Obere Strasse 22, CH-7270 Davos, Switzerland; e Department of Biochemistry I, Universitaetsstrasse 25, D-33615 Bielefeld, Germany. The reduced quantity and quality of serum immunoglobulins (sIgs) in mutant mice expressing truncated cytoplasmic tails of IgE and IgG1 indicate an active role for the cytoplasmic domains of mIgG1 and mIgE. We used phage display technology to identify candidate proteins able to interact with the cytoplasmic tail of mIgE. […] The interaction of HPK1 with the cytoplasmic domains of membrane immunoglobulins indicate an active role of the tails as part of an isotype specific signal transduction, independent from the Iga/Igb heterodimers, and may represent a missing link to upstream regulatory elements of HPK1 activation. […]

The target in test [3] is HIS-tag deficient random peptide. Put plainly: SPR; BIACORE NTA sensor chip; HIS-tagged Ig-tail peptides (150 nM in 0.01 M Hepes, 0.15 M NaCl, 50 mM EDTA, 0.005% surfactant P20) captured via the HIS-tag, 400 (+/-25) RUs each; 10^9 cfu cHPK1 phage in TBS injected 1 min, 100 s elution; relative RUs, IgE set to 100%.
The target in test [4] is HIS-tagged cytoplasmic tail of IgG2a. The test is described as above.
The target of test [5] is HIS-tagged modified IgE cytoplasmic tail lacking the four amino acids T-F-Q-D (IgEDTFQD) (mouse). The test is described as above.
Test [6] deals with HIS-tagged cytoplasmic tail of membrane IgE (28 amino acids) (mouse). Described as above.
The target of test [7] is HIS-tagged cytoplasmic tail of IgG2b. The test is described as above.
The target in test [8] is HIS-tagged cytoplasmic tail of IgG1 (mouse). Described as above.
The target of test [9] is HIS-tagged cytoplasmic tail of IgG3. The test is described as above.
Test [10] deals with HIS-tagged cytoplasmic tail of IgM (KVK). The test is described as above.
Test [11] addresses HIS-tagged cytoplasmic tail of membrane IgE (28 amino acids) (mouse). Nature of the test: SPR; BIACORE CM5 chip; IgE-tail peptide covalently coupled to Fc1 (1683 RUs), random peptide (1704 RUs) on Fc2 as reference; 1 x 10^9 cfu phagemids in TBS injected, then washing with TBS; relative response. (In general: SPR reads the build-up and loss of mass on a sensor chip optically.)

As to “(6 H) KVKWIFSSVVELKQKISPDYRNMI- GQGA [IgG2b, HIS-tagged synthetic cytoplasmic tail of IgG2b]”, in [1], the “decrease of binding capacity / relative binding affinity for cHPK1 compared to the wild type IgE tail” value is given as “about 60%”; the “Elution after 100 s, Relative RUs” value is given as 72 RUs; the “Injection after 60 s, Relative RUs” value is on record as 276 RUs; the “Elution after 100 s, %” value was 41%.
As to “(6 H) KVKWIFSSVVELKQTISPDYRNMI- GQGA [IgG2a, HIS-tagged synthetic cytoplasmic tail of IgG2a]”, in [1], the “decrease of binding capacity / relative binding affinity for cHPK1 compared to the wild type IgE tail” value is “about 60%”; the “Elution after 100 s, Relative RUs” value turned out to be 68 RUs; the “Injection after 60 s, Relative RUs” value is 284 RUs; the “Elution after 100 s, %” value is given as 38%.
As for “(6 H) KVKWIFSSVVELKQTLVPEYKNMI- GQAP [IgG1, HIS-tagged synthetic cytoplasmic tail of IgG1]”, in test [1], the “Elution after 100 s, Relative RUs” value stood at 128 RUs; the “Injection after 60 s, Relative RUs” value was 819 RUs; the “Elution after 100 s, %” value amounted to 72%.
On to “(6 H) KVKWIFSSVVQVKQTAIPDYRNMI- GQGA [IgG3, HIS-tagged synthetic cytoplasmic tail of IgG3]”, for which, in [1], the “Elution after 100 s, Relative RUs” value was determined as 120 RUs; the “Injection after 60 s, Relative RUs” value is 744 RUs; the “Elution after 100 s, %” value was 67%.
Take “(6 H) KVKWVFSTPMQDTPQYA- NILQTRA [IgEDTFQD, HIS-tagged IgE cytoplasmic tail peptide lacking the TFQD amino acids]”: in test [1], the “decrease of binding capacity / relative binding affinity for cHPK1 compared to the wild type IgE tail” value worked out at 47%; the “Elution after 100 s, Relative RUs” value worked out at 94 RUs; the “Injection after 60 s, Relative RUs” value came out at 563 RUs; the “Elution after 100 s, %” value is 53%.
Consider “HHHHHHKVKWVFSTPMQDTPQTFQDYA- NILQTRA [IgE, HIS-tagged synthetic peptide of the 28 amino acid long cytoplasmic tail of mIgE]”, for which the “relative increase in affinity after the elution step” value in test [2] is 500 RUs. Also, in test [1], the “Elution after 100 s, Relative RUs” value is 177 RUs and the “Injection after 60 s, Relative RUs” value stood at 691 RUs.
On to “SPHRCRIHPRPSKTMPTSSRPGH- RCDASTH [Random peptide, HIS-tag deficient random peptide used as control, reference compound]”, for which, in [1], the “Elution after 100 s, Relative RUs” value was approximately 0 RUs; the “Injection after 60 s, Relative RUs” value was 310 RUs; the “Elution after 100 s, %” value is reported as approximately 0%.
As for “cHPK1, 87 amino acids of the C-terminal part of murine hematopoietic progenitor kinase 1 (HPK1), displayed on phage (domain or fragment)”, the relative RUs 60 s after injection in test [3] is 310 RU; in [4], 284 RU; in [5], 563 RU; in [6], 691 RU; in test [7], 276 RU; in test [8] it was 819 RU. Moreover, the relative RUs 60 s after injection turned out to be 744 RU in test [9] and 617 RU in test [10]. Moreover, the % of the IgE tail's RUs after elution in test [4] was 38%; in test [5], 53%; in test [7] it was 41%; in [8], 72%; in test [9], 67%. Besides, the relative RUs 100 s after elution amounted to 68 RU in test [4]; 94 RU in test [5]; 177 RU in test [6]; 72 RU in [7]; 128 RU in [8]; 120 RU in [9]. The relative RUs after the elution step in test [11] was found to be 500 RUs.
